# Assay results reported in PubChem BioAssay (NCI).
#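 Test compounds were applied to cells in 96-well plates for 48 hours at 5 doses. GI50: concentration for 50% inhibition of growth. TGI: total growth inhibition.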
# Columns and labels:
# Experiment in all cases: NCI-60 cell line screen, 48 h
# 786-0 renal = system: 786-0 renal
# A498 renal = system: A498 renal
# A549 NSCLC = system: A549 NSCLC
# ACHN renal = system: ACHN renal
# BT-549 breast = system: BT-549 breast
# CAKI-1 renal = system: CAKI-1 renal
# CCRF-CEM leukemia = system: CCRF-CEM leukemia
# COLO 205 colon = system: COLO 205 colon
# DU-145 prostate = system: DU-145 prostate
# EKVX NSCLC = system: EKVX NSCLC
# HCC-2998 colon = system: HCC-2998 colon
# HCT-116 colon = system: HCT-116 colon
# HCT-15 colon = system: HCT-15 colon
# HL-60(TB) leukemia = system: HL-60(TB) leukemia
# HOP-62 NSCLC = system: HOP-62 NSCLC
# HS 578T breast = system: HS 578T breast
# HT29 colon = system: HT29 colon
# K-562 leukemia = system: K-562 leukemia
# KM12 colon = system: KM12 colon
# LOX IMVI melanoma = system: LOX IMVI melanoma
# M14 melanoma = system: M14 melanoma
# MALME-3M melanoma = system: MALME-3M melanoma
# MCF7 breast = system: MCF7 breast
# MDA-MB-231 breast = system: MDA-MB-231 breast
# MDA-MB-435 = system: MDA-MB-435
# MOLT-4 leukemia = system: MOLT-4 leukemia
structure (smiles),measurement,setting,value
Cc1cc(NN=C(c2ccc(O)cc2)c2ccc(O)cc2)c([N+](=O)[O-])cc1[N+](=O)[O-],GI50,786-0 renal,5.39 µM
same,TGI,786-0 renal,22.1 µM
same,GI50,A498 renal,9.29 µM
same,TGI,A498 renal,23.9 µM
same,GI50,A549 NSCLC,2.47 µM
same,TGI,A549 NSCLC,> 100 µM
same,GI50,ACHN renal,4.08 µM
same,TGI,ACHN renal,> 100 µM
same,GI50,BT-549 breast,11.4 µM
same,TGI,BT-549 breast,35.5 µM
same,GI50,CAKI-1 renal,18.7 µM
same,TGI,CAKI-1 renal,51.1 µM
same,GI50,CCRF-CEM leukemia,3.33 µM
same,TGI,CCRF-CEM leukemia,34 µM
same,GI50,COLO 205 colon,5.87 µM
same,TGI,COLO 205 colon,40.5 µM
same,GI50,DU-145 prostate,9.83 µM
same,TGI,DU-145 prostate,29.5 µM
same,GI50,EKVX NSCLC,4.54 µM
same,TGI,EKVX NSCLC,26.6 µM
same,GI50,HCC-2998 colon,8.24 µM
same,TGI,HCC-2998 colon,28.7 µM
same,GI50,HCT-116 colon,3.73 µM
same,TGI,HCT-116 colon,35.7 µM
same,GI50,HCT-15 colon,4.19 µM
same,TGI,HCT-15 colon,53.6 µM
same,GI50,HL-60(TB) leukemia,2.09 µM
same,TGI,HL-60(TB) leukemia,34.8 µM
same,GI50,HOP-62 NSCLC,4.11 µM
same,TGI,HOP-62 NSCLC,18.2 µM
same,GI50,HS 578T breast,5.04 µM
same,TGI,HS 578T breast,39.8 µM
same,GI50,HT29 colon,5.98 µM
same,TGI,HT29 colon,> 100 µM
same,GI50,K-562 leukemia,92.7 µM
same,TGI,K-562 leukemia,> 100 µM
same,GI50,KM12 colon,4.6 µM
same,TGI,KM12 colon,24 µM
same,GI50,LOX IMVI melanoma,3.8 µM
same,TGI,LOX IMVI melanoma,21.2 µM
same,GI50,M14 melanoma,4.5 µM
same,TGI,M14 melanoma,21.1 µM
same,GI50,MALME-3M melanoma,9.31 µM
same,TGI,MALME-3M melanoma,23.2 µM
same,GI50,MCF7 breast,2.93 µM
same,TGI,MCF7 breast,20.4 µM
same,GI50,MDA-MB-231 breast,4.7 µM
same,TGI,MDA-MB-231 breast,20.7 µM
same,GI50,MDA-MB-435,3.46 µM
same,TGI,MDA-MB-435,14.4 µM
same,GI50,MOLT-4 leukemia,1.84 µM
same,TGI,MOLT-4 leukemia,14.6 µM
